Results: ChEMBL document CHEMBL1201862, “PubChem BioAssay data set” (2004)
Active and inactive are the calls of the source.

Columns and labels:
[1] = THP-1 cell cytotoxicity, dose response, cytotoxicity control for non-replicating M. tuberculosis project (AID 489025); assay type: functional
cells = assay type: functional
[2] = M. tuberculosis H37Rv growth inhibitors, H37Rv strain (AID 1626); assay type: functional
[3] = biological target: Eukaryotic translation initiation factor 4E (Mus musculus, UniProt P63073); test: eIF4E–eIF4G protein interaction inhibitors, dose response, biochemical, TR-FRET (AID 855); assay type: functional;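 further: potency for disrupting eIF4E binding to eIF4GI seen as loss of FRET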
[4] = biological target: T1, Mannose-6-phosphate isomerase (Homo sapiens, UniProt P34949); test: human PMI inhibitors, high substrate, primary screen, biochemical, fluorescence intensity, high mannose 6-phosphate (AID 1220)
T1 sequence (P34949 whole entry): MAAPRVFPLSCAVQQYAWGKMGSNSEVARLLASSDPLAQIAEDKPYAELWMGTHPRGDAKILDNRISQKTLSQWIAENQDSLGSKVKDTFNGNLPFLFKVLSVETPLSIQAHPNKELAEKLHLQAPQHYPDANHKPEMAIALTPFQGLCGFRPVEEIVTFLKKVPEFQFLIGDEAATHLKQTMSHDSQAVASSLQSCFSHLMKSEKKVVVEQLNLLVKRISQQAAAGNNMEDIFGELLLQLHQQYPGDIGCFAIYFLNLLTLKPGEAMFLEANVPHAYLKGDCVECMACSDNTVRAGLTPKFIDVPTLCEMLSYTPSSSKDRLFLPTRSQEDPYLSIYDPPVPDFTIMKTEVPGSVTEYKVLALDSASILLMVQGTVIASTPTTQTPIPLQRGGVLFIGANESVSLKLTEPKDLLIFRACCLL

[5] = HEp-2 cell cytotoxicity, dose response, cytotoxicity control for RSV inhibitor project, HTS (AID 2410); assay type: functional; conditions: human respiratory syncytial virus
[6] = cytotoxicity in KRAS-transformed pancreatic duct cells, primary screen, cell-based, fluorescence, HTS (AID 431); assay type: functional; conditions: Homo sapiens;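 further: cell line used: HPDE-C7K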
[7] = cytotoxicity in HPDE-C7 cells, cell-based, fluorescence, HTS (AID 430); assay type: functional; conditions: Homo sapiens
[8] = cytotoxicity in HEK-293T cells, dose response, cytotoxicity control for BCR NF-kB inhibitor project, luminescence, B-cell screen hits (AID 489021); assay type: functional, cell-based;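 further: HEK-293T cells carrying an NF-kB luciferase reporter; cells exposed to compound for about 14 hours before viability readout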
H9c2 = test: cells; assay type: functional, cell-based; conditions: Rattus norvegicus, H9c2, Myocardium;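 further: confirmatory concentration-response retest of ultra-high-throughput screening hits for modulation of myocardial damage; cell death induced by hydrogen peroxide oxidative stress; compound pretreatment for 60 min then peroxide exposure for 2 h; potency is for protecting the cells against peroxide damage rather than for killing them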
HEK293 [9] = test: NOD1 signaling inhibitors, primary screen, cell-based, luminescence, uHTS (AID 1578); assay type: functional; conditions: Homo sapiens
HEK293 [10] = test: cells; conditions: Homo sapiens
HEK293 [11] = test: cells; assay type: functional, cell-based; conditions: Homo sapiens
Tumor necrosis factor = Tumor necrosis factor (Homo sapiens, UniProt P01375); test: TNFa-triggered NF-kB activation inhibitors, SAR follow-up, cell-based, revised (AID 2337); assay type: functional
[12] = biological target: T2, Nucleotide-binding oligomerization domain-containing protein 1 (Homo sapiens, UniProt Q9Y239); test: NOD1 signaling inhibitors, SAR follow-up, revised (AID 2333); assay type: functional
T2 sequence (Q9Y239 whole entry): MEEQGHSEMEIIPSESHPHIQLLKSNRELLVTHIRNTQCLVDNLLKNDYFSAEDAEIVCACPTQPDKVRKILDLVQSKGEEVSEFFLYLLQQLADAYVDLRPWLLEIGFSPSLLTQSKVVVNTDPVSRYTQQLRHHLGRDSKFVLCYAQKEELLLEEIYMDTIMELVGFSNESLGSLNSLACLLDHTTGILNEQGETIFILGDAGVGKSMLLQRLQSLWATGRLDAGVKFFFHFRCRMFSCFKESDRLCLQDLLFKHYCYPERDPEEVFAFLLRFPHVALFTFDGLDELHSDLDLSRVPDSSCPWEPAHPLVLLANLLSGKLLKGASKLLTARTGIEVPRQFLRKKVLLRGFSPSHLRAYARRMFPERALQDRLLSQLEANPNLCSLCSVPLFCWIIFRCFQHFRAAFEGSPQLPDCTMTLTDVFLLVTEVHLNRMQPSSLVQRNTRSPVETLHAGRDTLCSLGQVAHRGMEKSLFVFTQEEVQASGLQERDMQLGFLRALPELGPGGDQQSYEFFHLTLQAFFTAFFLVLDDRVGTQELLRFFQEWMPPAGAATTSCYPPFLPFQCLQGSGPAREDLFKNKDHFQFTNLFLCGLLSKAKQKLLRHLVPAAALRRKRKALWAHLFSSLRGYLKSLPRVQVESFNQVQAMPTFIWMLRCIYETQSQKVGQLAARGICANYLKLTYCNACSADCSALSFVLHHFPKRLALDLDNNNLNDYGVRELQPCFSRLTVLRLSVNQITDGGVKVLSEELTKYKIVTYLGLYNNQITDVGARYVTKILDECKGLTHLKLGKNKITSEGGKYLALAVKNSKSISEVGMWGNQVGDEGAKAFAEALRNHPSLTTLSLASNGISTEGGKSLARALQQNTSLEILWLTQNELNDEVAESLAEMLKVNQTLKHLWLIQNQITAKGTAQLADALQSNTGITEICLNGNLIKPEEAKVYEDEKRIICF

HEK293 [13] = test: cells; assay type: functional, cell-based; conditions: Homo sapiens; remark: listed apart in the source
HEK293 [14] = test: NOD2 signaling inhibitors in MDP-stimulated cells, cell-based, uHTS, luminescence (AID 2001); assay type: functional; conditions: Homo sapiens
INS1 = test: beta cell apoptosis inhibitors, cytokine rescue, dose response, luminescence, retest (AID 449756); assay type: functional, cell-based; conditions: Rattus norvegicus;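 further: cell death triggered by IL-1 beta plus TNF-alpha plus IFN-gamma mixture; protective hits raise ATP signal compared with cytokine alone wells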
[15] = Jurkat T cell cytotoxicity, dose response, cytotoxicity control for P. falciparum gametocyte viability project, luminescence (AID 1117277); assay type: functional, cell-based;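 further: potency reflects loss of cellular ATP meaning fewer viable cells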
[16] = P. falciparum late gametocyte killing, dose response, luminescence (AID 1117278); assay type: functional, cell-based;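 further: gametocytes exposed to compound for 24 hours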
Bcl-2-like protein 10 = biological target: T3, Bcl-2-like protein 10 (Homo sapiens, UniProt Q9HD36); test: displacers of TR3 peptide from Bcl-B, primary screen, selectivity assay for Bfl-1 inhibitor project, biochemical, fluorescence polarization, FITC-TR3 peptide (AID 748);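 further: fluorescence polarization from a fluorescein-labelled TR3 peptide binding purified Bcl-B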
T3 sequence (Q9HD36 whole entry): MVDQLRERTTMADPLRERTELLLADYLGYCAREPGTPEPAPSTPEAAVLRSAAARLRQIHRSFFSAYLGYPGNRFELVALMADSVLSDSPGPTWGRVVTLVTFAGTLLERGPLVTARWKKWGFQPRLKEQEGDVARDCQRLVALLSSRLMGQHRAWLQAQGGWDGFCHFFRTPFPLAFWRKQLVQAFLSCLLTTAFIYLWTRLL

[17] = cytotoxicity toward NIH3T3 fibroblasts, dose response, counter-screen, cell-based, ATP luminescence, mouse fibroblasts (AID 2010); assay type: functional;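 further: cells exposed to compound for about 90 hours before reading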
[18] = inhibitors of intracellular T. cruzi replication, confirmation, NIH3T3 host cells, beta-gal luminescence (AID 2044); assay type: functional, cell-based;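 further: intracellular parasites grown in NIH/3T3 mouse fibroblasts as host cells; luminescent beta-galactosidase reporter signal from transgenic T. cruzi replicating inside host cells; inhibitors lower the luminescence signal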
Aminopeptidase N = biological target: T4, Aminopeptidase N (Plasmodium falciparum FcB1/Columbia, UniProt O96935); test: P. falciparum M1AAP inhibitors, biochemical, fluorogenic H-Leu-NHMec substrate, 1536-well (AID 1445); design: species or system Plasmodium falciparum 3D7, 3D7
T4 sequence (O96935 whole entry): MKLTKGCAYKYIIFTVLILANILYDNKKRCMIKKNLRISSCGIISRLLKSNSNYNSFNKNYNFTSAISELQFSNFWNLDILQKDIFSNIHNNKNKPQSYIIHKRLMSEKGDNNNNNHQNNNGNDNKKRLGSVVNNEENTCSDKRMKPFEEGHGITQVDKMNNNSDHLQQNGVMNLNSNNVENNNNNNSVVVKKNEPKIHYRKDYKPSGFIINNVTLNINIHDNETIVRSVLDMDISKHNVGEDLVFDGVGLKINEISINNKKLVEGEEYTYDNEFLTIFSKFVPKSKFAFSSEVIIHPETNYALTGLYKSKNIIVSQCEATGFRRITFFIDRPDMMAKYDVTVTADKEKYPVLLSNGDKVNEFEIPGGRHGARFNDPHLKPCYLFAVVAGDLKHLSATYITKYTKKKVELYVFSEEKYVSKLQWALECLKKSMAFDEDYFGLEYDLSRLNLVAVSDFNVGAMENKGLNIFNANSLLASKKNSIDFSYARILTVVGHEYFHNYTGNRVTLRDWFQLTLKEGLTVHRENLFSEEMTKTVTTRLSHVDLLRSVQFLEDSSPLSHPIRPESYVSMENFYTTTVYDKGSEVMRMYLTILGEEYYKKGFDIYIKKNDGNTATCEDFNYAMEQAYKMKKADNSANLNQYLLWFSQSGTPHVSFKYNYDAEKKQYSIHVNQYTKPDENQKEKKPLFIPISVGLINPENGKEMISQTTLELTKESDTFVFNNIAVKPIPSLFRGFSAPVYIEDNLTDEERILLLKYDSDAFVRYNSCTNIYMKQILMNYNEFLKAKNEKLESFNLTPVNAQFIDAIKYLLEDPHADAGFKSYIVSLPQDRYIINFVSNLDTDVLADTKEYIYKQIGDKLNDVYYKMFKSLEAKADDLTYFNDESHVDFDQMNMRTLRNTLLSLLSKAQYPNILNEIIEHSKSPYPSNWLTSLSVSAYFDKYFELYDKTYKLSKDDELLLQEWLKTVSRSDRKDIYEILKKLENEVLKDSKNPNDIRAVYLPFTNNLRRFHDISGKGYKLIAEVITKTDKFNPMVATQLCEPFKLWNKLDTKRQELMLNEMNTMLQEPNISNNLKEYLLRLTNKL

[19] = biological target: T5, Bifunctional protein GlmU (Mycobacterium tuberculosis, UniProt P9WMN3); test: Inhibitors of Mycobacterial Glucosamine-1-phosphate acetyl transferase (GlmU). Secondary screen.; design: species or system Mycobacterium tuberculosis H37Rv
T5 sequence (P9WMN3 whole entry): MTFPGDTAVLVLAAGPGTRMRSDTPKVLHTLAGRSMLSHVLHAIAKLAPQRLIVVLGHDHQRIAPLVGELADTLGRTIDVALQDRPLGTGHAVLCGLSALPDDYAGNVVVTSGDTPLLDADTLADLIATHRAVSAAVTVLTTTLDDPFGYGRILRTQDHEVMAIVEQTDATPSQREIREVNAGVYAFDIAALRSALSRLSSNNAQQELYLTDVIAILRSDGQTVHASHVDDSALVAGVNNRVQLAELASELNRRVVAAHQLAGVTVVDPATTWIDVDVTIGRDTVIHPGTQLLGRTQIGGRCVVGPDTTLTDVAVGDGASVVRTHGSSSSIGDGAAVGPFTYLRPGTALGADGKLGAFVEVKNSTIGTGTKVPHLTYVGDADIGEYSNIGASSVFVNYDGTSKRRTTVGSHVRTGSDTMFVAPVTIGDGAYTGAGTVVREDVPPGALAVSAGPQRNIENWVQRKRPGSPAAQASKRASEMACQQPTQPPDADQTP

[20] = Luminescence Cell-Based Dose Response HTS to Identify Inhibitors of 5'UTR Stem-Loop Driven Prion Protein mRNA Translation in H4 Neuroglioblastoma Cells. [Related pubchem assays: 1827 (Project Summary), 1813 (Primary HTS)]; assay type: functional
[21] = inhibitors of firefly luciferase expression or activity, dose response, H4 neuroglioma cells, luminescence (AID 1990); assay type: functional, cell-based
[22] = inhibitors of SNCA 5'UTR-driven reporter translation, confirmation, H4 neuroglioma cells, luminescence (AID 1988); assay type: functional, cell-based

Chain of Eukaryotic translation initiation factor 4E (P63073 whole entry): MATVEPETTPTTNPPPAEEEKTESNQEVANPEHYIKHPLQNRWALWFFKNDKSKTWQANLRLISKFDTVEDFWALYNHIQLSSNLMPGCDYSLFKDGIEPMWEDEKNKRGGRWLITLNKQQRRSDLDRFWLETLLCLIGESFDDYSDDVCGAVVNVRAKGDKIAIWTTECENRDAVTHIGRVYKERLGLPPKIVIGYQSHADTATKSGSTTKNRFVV
Chain of Tumor necrosis factor (P01375 whole entry, the tested form may be a part): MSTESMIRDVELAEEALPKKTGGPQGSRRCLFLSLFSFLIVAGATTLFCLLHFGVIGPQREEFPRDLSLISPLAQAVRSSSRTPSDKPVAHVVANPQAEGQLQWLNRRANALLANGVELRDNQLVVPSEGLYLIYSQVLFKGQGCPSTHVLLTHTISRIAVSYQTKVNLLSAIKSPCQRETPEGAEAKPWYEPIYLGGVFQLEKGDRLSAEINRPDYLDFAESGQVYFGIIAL

Compound: COc1ccc(NC(=O)c2ccc(COCC(F)(F)C(F)F)cc2)cc1
- CC50 [1]: > 40 µM (active)
- IC50 (cells): 47.8 µM (active)
- IC50 [2]: > 100 µM (active)

Compound: Nc1nnc(SCc2ccccc2Cl)s1
- IC50 [3]: > 64 µM (inactive)

Compound: COc1cc2c(C#N)c(N3CCc4ccccc4C3)nc(N)c2c(N)n1
- IC50 [4]: > 50 µM (not active)
- CC50 [5]: 15.2 µM (active)
- EC50 [6]: 8.37 µM (active)
- EC50 [7]: 7.82 µM (active)

Compound: CC(C)N1C(=O)S/C(=C/c2ccc3c(c2)n(C)c(=O)n3C)C1=O
- IC50 [8]: > 80 µM (inactive)
- IC50 (H9c2): 32.2 µM (inactive)

Compound: COc1ccccc1CNc1ncnc2sccc12
- EC50 (HEK293 [9]): 1.69 µM (active)
- IC50 (HEK293 [10]): > 20 µM (inactive)
- IC50 (HEK293 [11]): 14.8 µM (active)
- IC50 (Tumor necrosis factor): 4.19 µM (active)
- IC50 [12]: 3.08 µM (active)
- IC50 (HEK293 [13]): 4.4 µM (active)
- IC50 (HEK293 [14]): 8.12 µM (active)
- AC50 (INS1): 4.26 µM (active)

Compound: CCOC(=O)CNC(=O)c1cc(OC)cc(OC)c1
- IC50 [15]: > 83.3 µM (inactive)
- IC50 [16]: > 109 µM (inactive)

Compound: CCCc1cc(O)nc(SCC(=O)N2CCN(S(=O)(=O)c3ccc4ccccc4c3)CC2)n1
- IC50 [15]: > 83.3 µM (inactive)
- IC50 [16]: > 109 µM (inactive)

Compound: COC(=O)c1[nH]c2cccc(OC)c2c1NC(=O)CCN1CCC(C(N)=O)CC1
- IC50 (Bcl-2-like protein 10): > 100 µM (inactive)

Compound: N=c1c2c(n(Cc3cccc(Cl)c3)c3c1CCC3)CCCC2
- EC50 [17]: > 60 µM (inconclusive)
- IC50 [8]: > 80 µM (inactive)
- EC50 [18]: 0.167 µM (active)
- AC50 (INS1): 6.82 µM (active)

Compound: O=C1NC(=S)S/C1=C\c1coc2ccc(O)cc2c1=O
- IC50 (Aminopeptidase N): 38.8 µM (active)
- IC50 [19]: 112 µM (active)

Compound: COc1ccc(-c2nc(C[S+]([O-])CC(=O)NCCCN3CC(C)CC(C)C3)c(C)o2)cc1OC (stereo not drawn)
- IC50 [15]: > 83.3 µM (inactive)
- IC50 [16]: > 109 µM (inactive)

Compound: C/C(=C\C(=O)c1cccnc1)Nc1ccc(C(=O)O)cc1
- IC50 [4]: > 50 µM (not active)

Compound: CCOC(=O)c1cc2c(=O)n3ccccc3nc2n(CC(C)C)/c1=N/C(=O)c1c(-c2c(F)cccc2Cl)noc1C
- IC50 [8]: > 80 µM (inactive)
- EC50 [20]: 15.8 µM (active)
- EC50 [21]: 14.1 µM (active)
- EC50 [22]: 42.8 µM (active)

Compound: CC1(C)CC(NC(=O)c2sc3cc(Cl)ccc3c2Cl)CC(C)(C)N1
- IC50 [2]: > 100 µM (active)

Compound: CCC1Cc2c(nc(N)c3c(N)nc(N4CCCCC4)c(C#N)c23)O1 (stereo not drawn)
- IC50 [4]: > 50 µM (not active)
